The values that follow come from patent publication US20230286923A1 (INIPHARM, INC., priority 2020, published 2023).

Experiment [1] concerns the target T1, HSD17B13 enzyme (Homo sapiens (Human), UniProt Q7Z5P4). Briefly: NADH detection assay (fluorescence based LTB3 assay) for HSD17B13 activity. The settings on record: substrate 25 µM LTB3, 3 mM NAD+, 125 nM enzyme. Type of experiment: biochemical. As for the experimental part: The fluorescence based Leukotriene B3 (LTB3) assay monitors the fluorescence of NADH, which is generated from NAD+ during the dehydrogenation of the substrate LTB3. The reactions were performed in a 384-well plates (Greiner; #655076) in a 20 µl reaction volume containing the following reagents (final concentrations): 25 µM LTB3 (Cayman; #20109); 3 mM NAD^+ (Sigma; #N0623); 125 nM HSD17B13 enzyme (in-house; E. coli expressed His-tagged, purified, soluble protein); 1 M potassium phosphate buffer, pH 7.4; and 1% DMSO. Reactions were initiated by co-addition of NAD+ and enzyme, and monitored for 1 hour at 26.5° C. Generation of NADH was measured as the fluorescence signal (Excitation at 340 nm and Emission at 445 nm) at 1 hour minus the baseline fluorescence at t=0. Fluorescence signals in the absence of LTB3 (negative control values), were subtracted from all values so that the results reflected substrate-dependent production of NADH. NADH standards were included to allow the conversion of relative fluorescence units into rates of enzyme activity. Enzyme activity in the presence of test compounds was expressed as a percentage of the uninhibited enzyme activity, and plotted versus inhibitor concentration. Non-linear regression was performed using a four-parameter logistic model and Microsoft Excel Solver software Ten concentrations of inhibitor were tested in duplicate (in the range of 30 µM - 2.5 nM), and two independent concentration response assays were performed.

Experiment [2] has as its target T1, HSD17B13 enzyme. Nature of the experiment: Estrone detection assay (LC/MS, conversion of estradiol to estrone) for HSD17B13 activity. The experiment is classed as biochemical. The following applies: substrate 4 µM estradiol, 6 mM NAD+, 30 nM enzyme. As for the experimental part:
The liquid chromatography/mass spectrometry (LC/MS) estrone detection assay monitors the conversion of estradiol to estrone by HSD17B13. This assay was undertaken in a 96wp format (Eppendorf deep well Plate 96/500) in an 80 µl reaction volume containing: 4 µM of Estradiol (E2; Cayman; #10006315), 6 mM NAD^+ (Sigma; #N0623) and 30 nM HSD17B13 enzyme (in-house; E. coli expressed His-tagged, purified, soluble protein) in a reaction containing 1 M potassium phosphate buffer pH 7.4, with 0.5% vehicle (DMSO). Reactions were incubated for 2 hours at 26.5° C., and estradiol (E2) conversion to estrone (E1) was quantitated by LC-MS/MS based analyte detection for both E2 and E1 using LCMS grade reagents.
Reactions were terminated by the addition of two volumes of acetonitrile (MeCN; LCMS grade; CAS# 75/05/8) containing deuterated (D4)-E1 used as internal standard (Clear Synth; #CS-T-54273; 500 ng/mL final concentration). Samples were applied to pre-prepared Bond Elut-C18 extraction cartridges (3 mL; Agilent; #12102028), washed and eluted in MeCN. Eluates were dried under nitrogen and re-suspended in 60% methanol (LCMS grade methanol; CAS# 67/56/1) before submission for analysis. Aqueous linearity for E2 and E1 were included for quantification.
Analysis of samples was undertaken on a XBridge BEH C18 column (Waters; #186003033) using 0.1% Diethyl Amine in MeCN (mobile phase A; DEA CAS# 109-89-7) and 0.1% Diethyl Amine in milli-Q water (mobile phase B) in a 3 min gradient allowing 25%B. Analytes were detected in negative mode using MRM analysis, with E2 having a RT of 1.85 min and E1 having a RT of 2 min. Activity of the enzyme, in the absence of NAD^+, was used to evaluate specificity of conversion. Enzyme activity in the presence of test samples was expressed as a percentage of the uninhibited enzyme activity, and plotted versus inhibitor concentration. Non-linear regression was performed using a four-parameter logistic model and GraphPad Prism software (GraphPad Software, La Jolla, CA). All assessments were undertaken in duplicate evaluations and pooled during extraction process and subsequently injected as duplicates for LC-MS/MS analysis.

A value given as a limit tells only on which side of the number the result lay.

T1 sequence (Q7Z5P4 20-300): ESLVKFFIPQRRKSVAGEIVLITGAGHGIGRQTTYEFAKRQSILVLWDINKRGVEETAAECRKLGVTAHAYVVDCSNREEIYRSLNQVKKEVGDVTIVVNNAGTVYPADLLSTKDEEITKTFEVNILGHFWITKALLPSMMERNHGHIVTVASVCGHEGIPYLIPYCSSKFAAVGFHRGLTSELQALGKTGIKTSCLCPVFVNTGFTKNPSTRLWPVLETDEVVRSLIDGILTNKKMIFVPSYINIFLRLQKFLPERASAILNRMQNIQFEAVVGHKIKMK

On to `COc1ccccc1CCn1cnc2cccc(NC(=O)c3ccc(-c4cn[nH]c4)c(F)c3)c2c1=O` [Example 21, 3-fluoro-N-(3-(2-methoxyphenethyl)-4-oxo-3,4-dihydroquinazolin-5-yl)-4-(1H-pyrazol-4-yl)benzamide], for which the IC50 at HSD17B13 enzyme [1] and at HSD17B13 enzyme [2] was above 10 µM each time.
With `COc1ccccc1CCn1cnc2cccc(NC(=O)c3ccc(-c4cc[nH]n4)c(F)c3)c2c1=O` [Example 22, 3-fluoro-N-(3-(2-methoxyphenethyl)-4-oxo-3,4-dihydroquinazolin-5-yl)-4-(1H-pyrazol-3-yl)benzamide], the half-maximal inhibitory concentration (IC50) was 1 to 5 µM against HSD17B13 enzyme [1] and above 10 µM against HSD17B13 enzyme [2].
As for `COc1ccccc1CCn1cnc2cccc(NC(=O)c3ccc(P(=O)(O)O)c(F)c3)c2c1=O` [Example 23, (2-fluoro-4-((3-(2-methoxyphenethyl)-4-oxo-3,4-dihydroquinazolin-5-yl)carbamoyl)phenyl)phosphonic acid], the IC50 against HSD17B13 enzyme [1] and at HSD17B13 enzyme [2] was above 10 µM in each case.
For `COc1ccccc1CCn1cnc2cccc(NC(=O)c3cc(Cl)c(O)c(C(C)C)c3)c2c1=O` [Example 24, 3-chloro-4-hydroxy-5-isopropyl-N-(3-(2-methoxyphenethyl)-4-oxo-3,4-dihydroquinazolin-5-yl)benzamide], the 50% inhibitory concentration (IC50) against HSD17B13 enzyme [1] and against HSD17B13 enzyme [2] was above 10 µM throughout.
With `COc1ccccc1CCn1cnc2cccc(NC(=O)c3ccc(CC(=O)O)c(F)c3)c2c1=O` [Example 25, 2-(2-fluoro-4-((3-(2-methoxyphenethyl)-4-oxo-3,4-dihydroquinazolin-5-yl)carbamoyl)phenyl)acetic acid], the values for the IC50 on HSD17B13 enzyme [1] and against HSD17B13 enzyme [2] were above 10 µM and 1 to 10 µM, respectively.
Consider `COc1ccccc1CCn1cnc2cccc(NC(=O)c3ccc(-c4cnn[nH]4)c(F)c3)c2c1=O` [Example 26, 3-fluoro-N-(3-(2-methoxyphenethyl)-4-oxo-3,4-dihydroquinazolin-5-yl)-4-(1H-1,2,3-triazol-5-yl)benzamide], for which the IC50 against HSD17B13 enzyme [1] is above 10 µM; at HSD17B13 enzyme [2] it was 1 to 10 µM.
For the compound `COc1ccccc1CCn1cnc2cccc(NC(=O)c3ccc(-c4nnn[nH]4)c(Cl)c3)c2c1=O` [Example 27, 3-chloro-N-(3-(2-methoxyphenethyl)-4-oxo-3,4-dihydroquinazolin-5-yl)-4-(1H-tetrazol-5-yl)benzamide], the IC50 against HSD17B13 enzyme [1] fell in the range of 1 to 5 µM; against HSD17B13 enzyme [2], 1 to 10 µM.
For `COc1ccccc1CCn1cnc2c(c(NC(=O)c3ccc(O)c(F)c3)nn2C)c1=O` [Example 28, 3-fluoro-4-hydroxy-N-(5-(2-methoxyphenethyl)-1-methyl-4-oxo-4,5-dihydro-1H-pyrazolo[3,4-d]pyrimidin-3-yl)benzamide] the same measures were 5 to 10 µM and 0.1 to 1 µM.
For `COc1ccccc1CCn1cnc2cccc(NC(=O)c3ccc(S(N)(=O)=O)c(Cl)c3)c2c1=O` [Example 29, 3-chloro-N-(3-(2-methoxyphenethyl)-4-oxo-3,4-dihydroquinazolin-5-yl)-4-sulfamoylbenzamide] the same measures were above 10 µM and above 10 µM.
The corresponding values for `O=C(Nc1cccc2ncn(Cc3cccnc3)c(=O)c12)c1ccc(O)c(Cl)c1` [Example 30, 3-chloro-4-hydroxy-N-(4-oxo-3-(pyridin-3-ylmethyl)-3,4-dihydroquinazolin-5-yl)benzamide] are at most 1 µM and at most 0.1 µM.
As for `COc1ccccc1CCn1cnc2cccc(NC(=O)c3ccc(O)c(C(C)(C)C)c3)c2c1=O` [Example 31, 3-(tert-butyl)-4-hydroxy-N-(3-(2-methoxyphenethyl)-4-oxo-3,4-dihydroquinazolin-5-yl)benzamide], the IC50 against HSD17B13 enzyme [1] and at HSD17B13 enzyme [2] was above 10 µM in each case.
Regarding `COc1ccccc1CCn1cnc2cccc(NC(=O)c3ccc(O)c(C(F)(F)F)c3)c2c1=O` [Example 32, 4-hydroxy-N-(3-(2-methoxyphenethyl)-4-oxo-3,4-dihydroquinazolin-5-yl)-3-(trifluoromethyl)benzamide], the IC50 on HSD17B13 enzyme [1] is at most 1 µM; against HSD17B13 enzyme [2] it was at most 0.1 µM.
Regarding `COc1ccccc1CCn1cnc2cccc(NC(=O)c3cc(Cl)c(O)c(Cl)c3)c2c1=O` [Example 33, 3,5-dichloro-4-hydroxy-N-(3-(2-methoxyphenethyl)-4-oxo-3,4-dihydroquinazolin-5-yl)benzamide], the figures for the IC50 against HSD17B13 enzyme [1] and against HSD17B13 enzyme [2] were 1 to 5 µM and 0.1 to 1 µM, respectively.
As for `COc1ccccc1CCn1cnc2sc(C)c(NC(=O)c3ccc(O)c(Cl)c3)c2c1=O` [Example 34, 3-chloro-4-hydroxy-N-(3-(2-methoxyphenethyl)-6-methyl-4-oxo-3,4-dihydrothieno[2,3-d]pyrimidin-5-yl)benzamide], the half-inhibitory concentration (IC50) at HSD17B13 enzyme [1] was at most 1 µM; against HSD17B13 enzyme [2] it was at most 0.1 µM.
